Test results as given in BindingDB's records for doi:10.7270/Q2XP773S (n/a, 1996).

Biological target: Histamine H2 receptor (Cavia porcellus, UniProt P47747)
Assay: ChEBML_85064
Description: Histamine H2 receptor antagonistic activity

Sequence of Histamine H2 receptor (P47747 whole entry): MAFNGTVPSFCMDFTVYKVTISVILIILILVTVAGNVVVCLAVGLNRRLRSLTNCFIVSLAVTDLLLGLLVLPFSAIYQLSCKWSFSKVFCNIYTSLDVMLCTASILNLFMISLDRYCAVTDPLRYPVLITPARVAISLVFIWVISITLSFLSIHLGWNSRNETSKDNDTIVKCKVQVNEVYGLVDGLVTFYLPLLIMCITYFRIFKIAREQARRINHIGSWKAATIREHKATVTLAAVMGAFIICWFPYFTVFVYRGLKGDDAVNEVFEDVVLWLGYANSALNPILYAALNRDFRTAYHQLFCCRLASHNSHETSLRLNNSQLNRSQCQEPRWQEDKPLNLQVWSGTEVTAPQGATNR

IC50 [µM]	Structure (SMILES)
1.83	C/N=c1\c(O)c(O)c1=NC/C=C\COc1csc(CN2CCCCC2)c1
0.809	CN(C)CC/N=c1\c(O)c(O)c1=NC/C=C\COc1csc(CN2CCCCC2)c1
0.684	CN(C)Cc1cc(OC/C=C\CN=c2c(O)c(O)c2=N)cs1
1.93	CC(C)/N=c1\c(O)c(O)c1=NC/C=C\COc1csc(CN2CCCCC2)c1
1.14	COCC/N=c1\c(O)c(O)c1=NC/C=C\COc1csc(CN2CCCCC2)c1
